In the NIST ThermoML archive (doi:10.1016/j.fluid.2005.01.012):
± gives the expanded uncertainty stated by the source.

Assay: refractive index (Na D-line) (dimensionless)
Settings: 293.1 K; 101.33 kPa; Liquid; Standard Abbe refractometry

SMILES	refractive index
CN1CCCC1=O [N-methylpyrrolidone]	1.4696 ± 0.0008
CCCc1ccccc1 [propylbenzene]	1.4915 ± 0.0008

More lines, now with the values ahead:

refractive index	SMILES
1.422 ± 0.0008	CCCCCCCCCCCC [dodecane]
1.4362 ± 0.0008	CCCCCCCCCCCCCCCCC [heptadecane]
1.4291 ± 0.0008	CCCCCCCCCCCCCC [tetradecane]
